The text below walks through data of patent US8969320B2, “Hyaluronic acid derivatives containing groups able to release NO” (Fidia Farmaceutici S.P.A., priority 2007, dated 2015).

The assay in a line: Release Test: nitric oxide (NO) release profile by spectrophotometry (Griess test). It counts as physicochemical. As to conditions: 4 mg product in 2.5 ml Griess reagent. The method, then: The nitric oxide (NO) release profile of the compounds of the invention was evaluated by spectrophotometry using the […]. The trend of NO release by the HA-Cys conjugate in S-nitroso form, prepared as described in example 13, is shown here by way of example. Briefly: 4 mg of the product is dissolved in 2.5 ml of Griess reagent in a UV-visible spectrophotometric cuvette. The solution is rapidly homogenised, placed in a double-beam spectrophotometer (Perkin Elmer Lambda 2), and the absorbance trend is measured at 540 nm over time against a blank consisting of Griess solution. The absorbance, i.e. the nitric oxide concentration, increases in the solution with an asymptotic trend, the plateau of which has not yet been reached 25 hrs after release. Assuming first-order kinetics, a decay constant amounting to 70 min^−1 is obtained.
A general note: Nitrite, measured by Griess reagent, commonly stands in for NO production.

With “HA-Cys-S-nitric Oxide p50 Derivative (750 kDa) [Example 13]”, the “decay constant of NO release, assuming first-order kinetics” value (absorbance at 540 nm over time against Griess solution blank) was found to be 70 min⁻¹. Further, the “time after release at which the plateau of NO concentration (absorbance) has not yet been reached” value (absorbance at 540 nm, asymptotic trend) is more than 25 h.
